Experiments:
Assay type in all cases: in vivo
[1] = test system: redroot pigweed (Amaranthus retroflexus, AMARE); experiment: Pre-emerge test, greenhouse herbicide activity screening; conditions: pre-emerge, phytotoxicity rating 0-100 at 14 days after application
Method in brief: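 Herbicidal damage is scored 0 (none) to 100 (complete plant death) two weeks after a simulated field spray. Rates span 15–1000 g ai/ha, delivered in acetone at 187 l/ha. For post-emergence treatments, plants have 2–3 leaves and the spray carries 0.25% v/v non-ionic surfactant.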

[2] = test system: velvetleaf (Abutilon theophrasti, ABUTH); experiment: as above; conditions: pre-emerge, phytotoxicity rating 0-100 at 14 days after application
Excerpt: (§1) A standard greenhouse herbicide activity screening system was used to evaluate the herbicidal efficacy and crop safety of these test compounds. Seven broadleaf weed species including redroot pigweed (Amaranthus retroflexus, AMARE, velvetleaf (Abutilon theophrasti, ABUTH), sicklepod (Cassia obtusifolia, CASOB), ivyleaf morningglory (Ipomoea hederacea, IPOHE), lambsquarters (Chenopodium album, CHEAL), common ragweed (Ambrosia artemisizfolia L., AMBEL), and cocklebur (Xanthium strumarium, XANST) were used as test species. Four grass weed species including green foxtail (Setaria viridis, SETVI), barnyardgrass (Echinochloa crus-galli, ECHCG), johnsongrass (Sorghum halepense, SORHA), and large crabgrass (Digitaria sanguinalis, DIGSA) were also used. In addition, three crop species, field corn (Zea mays L., var. Dekalb 535, CORN), soybean (Glycine max L., var. Pella 86, SOY), and is upland rice (Oryza sp., var. Tebonnet, RICE) were included.
(§2) All plants were grown in 10 cm square plastic pots which were filled with a sandy loam soil mix. For pre-emerge tests, seeds were planted one day prior to application of the test compounds. For post-emerge tests, seeds were planted 8-21 days prior to the test to allow emergence and good foliage development prior to application of the test substances. At the time of the post-emerge application, plants of all species were usually at the 2-3 leaf stage of development.
(§3) All test compounds Were dissolved in acetone and applied to the test units in a volume of 187 l /ha. Test materials were applied at rates ranging from 15 g ai/ha to 1000 g ai/ha using a track sprayer equipped with a TJ8001E even flow flat fan spray nozzle. Plants were arranged on a shelf so that the top of the canopy (post-emerge) or top of the soil surface (pre-emerge) was 40-45 cm below the nozzle. Pressurized air was used to force the test solution through the nozzle as it was mechanically advanced (via electrically driven chain drive) over the top of all test plants/pots. This application simulates a typical commercial field herbicide application.
(§4) In the post-emerge test, a commercial non-ionic surfactant was also included (0.25% v/v) to enhance wetting of the leaf surfaces of target plants. Immediately after application, test units of the pre-emerge applications were watered at the soil surface to incorporate the test materials. Subsequently, these test units were bottom-watered. Post-emerge test units were always bottom-watered.
(§5) At 14 days after application of the test materials, phytotoxicity ratings were recorded. A rating scale of 0-100 was used as previously described in Research Methods in Weed Science, 2nd edition, B. Truelove, Ed., Southern Weed Science Society, Auburn University, Auburn, Ala. 1977. Briefly, “0” corresponds to no damage and “100” corresponds to complete death of all plants in the test unit. This scale was used both to determine efficacy against weed species and damage to crop species. Herbicide activity data for various compounds of this invention, which are shown by compound No. in Tables 1-8, are shown in Tables 11 and 12.

[3] = test system: lambsquarters (Chenopodium album, CHEAL); experiment: as above; conditions: pre-emerge, phytotoxicity rating 0-100 at 14 days after application
Excerpt: as §1, §2, §3, §4, §5

[4] = test system: large crabgrass (Digitaria sanguinalis, DIGSA); experiment: as above; conditions: pre-emerge, phytotoxicity rating 0-100 at 14 days after application
Excerpt: as §1, §2, §3, §4, §5

[5] = test system: barnyardgrass (Echinochloa crus-galli, ECHCG); experiment: as above; conditions: pre-emerge, phytotoxicity rating 0-100 at 14 days after application
Excerpt: as §1, §2, §3, §4, §5

[6] = test system: sicklepod (Cassia obtusifolia, CASOB); experiment: as above; conditions: pre-emerge, phytotoxicity rating 0-100 at 14 days after application
Excerpt: as §1, §2, §3, §4, §5

[7] = test system: ivyleaf morningglory (Ipomoea hederacea, IPOHE); experiment: as above; conditions: pre-emerge, phytotoxicity rating 0-100 at 14 days after application
Excerpt: as §1, §2, §3, §4, §5

[8] = test system: green foxtail (Setaria viridis, SETVI); experiment: as above; conditions: pre-emerge, phytotoxicity rating 0-100 at 14 days after application
Excerpt: as §1, §2, §3, §4, §5

[9] = test system: upland rice (Oryza sp., var. Tebonnet, RICE); experiment: Post-emerge test, crop safety; conditions: post-emerge, crop damage rating 0-100 at 14 days after application
Method in brief: (§6)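 Applied at 15–1000 g ai/ha from acetone in 187 l/ha spray volume. Post-emergence applications included 0.25% v/v non-ionic surfactant and reached plants sown 8–21 days before. Pre-emergence applications were incorporated by surface watering. Efficacy or crop damage was rated on a 0–100 scale after 14 days.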

[10] = test system: field corn (Zea mays L., var. Dekalb 535, CORN); experiment: Post-emerge test, crop safety; conditions: post-emerge, crop damage rating 0-100 at 14 days after application
Method in brief: as §6

[11] = test system: velvetleaf (Abutilon theophrasti, ABUTH); experiment: Post-emerge test, greenhouse herbicide activity screening; conditions: post-emerge, phytotoxicity rating 0-100 at 14 days after application
Excerpt: as §1, §2, §3, §4, §5

[12] = test system: lambsquarters (Chenopodium album, CHEAL); experiment: as above; conditions: post-emerge, phytotoxicity rating 0-100 at 14 days after application
Excerpt: as §1, §2, §3, §4, §5

[13] = test system: large crabgrass (Digitaria sanguinalis, DIGSA); experiment: as above; conditions: post-emerge, phytotoxicity rating 0-100 at 14 days after application
Excerpt: as §1, §2, §3, §4, §5

[14] = test system: barnyardgrass (Echinochloa crus-galli, ECHCG); experiment: as above; conditions: post-emerge, phytotoxicity rating 0-100 at 14 days after application
Excerpt: as §1, §2, §3, §4, §5

[15] = test system: sicklepod (Cassia obtusifolia, CASOB); experiment: as above; conditions: post-emerge, phytotoxicity rating 0-100 at 14 days after application
Excerpt: as §1, §2, §3, §4, §5

[16] = test system: ivyleaf morningglory (Ipomoea hederacea, IPOHE); experiment: as above; conditions: post-emerge, phytotoxicity rating 0-100 at 14 days after application
Excerpt: as §1, §2, §3, §4, §5

[17] = test system: green foxtail (Setaria viridis, SETVI); experiment: as above; conditions: post-emerge, phytotoxicity rating 0-100 at 14 days after application
Excerpt: as §1, §2, §3, §4, §5

[18] = test system: redroot pigweed (Amaranthus retroflexus, AMARE); experiment: as above; conditions: post-emerge, phytotoxicity rating 0-100 at 14 days after application
Excerpt: as §1, §2, §3, §4, §5

[19] = test system: upland rice (Oryza sp., var. Tebonnet, RICE); experiment: Pre-emerge test, crop safety; conditions: crop damage, pre-emerge, phytotoxicity rating 0-100 at 14 days after application
Method in brief: (§7)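 Rating: 0–100 visual injury, 14 DAA. Application: acetone, 187 l/ha, 15–1000 g ai/ha, flat-fan track sprayer with nozzle 40–45 cm above soil or canopy. Post-emerge runs used 0.25% v/v surfactant on 2–3 leaf plants.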

[20] = test system: field corn (Zea mays L., var. Dekalb 535, CORN); experiment: Pre-emerge test, crop safety; conditions: crop damage, pre-emerge, phytotoxicity rating 0-100 at 14 days after application
Method in brief: as §7

## Cc1cccc(COC(=O)Nc2c(C)c(Cl)cc(F)c2-n2c(=O)cc(C(F)(F)F)n(C)c2=O)c1 [4-68]
[1]; rate 63 g ai/ha
  Pre-emerge Herbicidal Activity AMARE: 100
[1]; rate 250 g ai/ha
  Pre-emerge Herbicidal Activity AMARE: 100
[2]; rate 63 g ai/ha
  Pre-emerge Herbicidal Activity ABUTH: 100
[2]; rate 250 g ai/ha
  Pre-emerge Herbicidal Activity ABUTH: 100
[3]; rate 63 g ai/ha
  Pre-emerge Herbicidal Activity CHEAL: 100
[3]; rate 250 g ai/ha
  Pre-emerge Herbicidal Activity CHEAL: 100
[4]; rate 63 g ai/ha
  Pre-emerge Herbicidal Activity DIGSA: 100
[4]; rate 250 g ai/ha
  Pre-emerge Herbicidal Activity DIGSA: 100
[5]; rate 63 g ai/ha
  Pre-emerge Herbicidal Activity ECHCG: 60
[5]; rate 250 g ai/ha
  Pre-emerge Herbicidal Activity ECHCG: 98
[6]; rate 63 g ai/ha
  Pre-emerge Herbicidal Activity CASOB: 40
[6]; rate 250 g ai/ha
  Pre-emerge Herbicidal Activity CASOB: 100
[7]; rate 63 g ai/ha
  Pre-emerge Herbicidal Activity IPOHE: 40
[7]; rate 250 g ai/ha
  Pre-emerge Herbicidal Activity IPOHE: 100
[8]; rate 63 g ai/ha
  Pre-emerge Herbicidal Activity SETVI: 100
[8]; rate 250 g ai/ha
  Pre-emerge Herbicidal Activity SETVI: 100
[9]; 63 g ai/ha
  Post-emerge Herbicidal Activity RICE: 60
[9]; 250 g ai/ha
  Post-emerge Herbicidal Activity RICE: 80
[10]; 63 g ai/ha
  Post-emerge Herbicidal Activity CORN: 95
[10]; 250 g ai/ha
  Post-emerge Herbicidal Activity CORN: 100
[11]; 63 g ai/ha
  Post-emerge Herbicidal Activity ABUTH: 100
[11]; 250 g ai/ha
  Post-emerge Herbicidal Activity ABUTH: 100
[12]; 63 g ai/ha
  Post-emerge Herbicidal Activity CHEAL: 100
[12]; 250 g ai/ha
  Post-emerge Herbicidal Activity CHEAL: 100
[13]; 63 g ai/ha
  Post-emerge Herbicidal Activity DIGSA: 75
[13]; 250 g ai/ha
  Post-emerge Herbicidal Activity DIGSA: 90
[14]; 63 g ai/ha
  Post-emerge Herbicidal Activity ECHCG: 90
[14]; 250 g ai/ha
  Post-emerge Herbicidal Activity ECHCG: 98
[15]; 63 g ai/ha
  Post-emerge Herbicidal Activity CASOB: 100
[15]; 250 g ai/ha
  Post-emerge Herbicidal Activity CASOB: 100
[16]; 63 g ai/ha
  Post-emerge Herbicidal Activity IPOHE: 100
[16]; 250 g ai/ha
  Post-emerge Herbicidal Activity IPOHE: 100
[17]; 63 g ai/ha
  Post-emerge Herbicidal Activity SETVI: 100
[17]; 250 g ai/ha
  Post-emerge Herbicidal Activity SETVI: 100
[18]; 63 g ai/ha
  Post-emerge Herbicidal Activity AMARE: 100
[18]; 250 g ai/ha
  Post-emerge Herbicidal Activity AMARE: 100
[19]; rate 63 g ai/ha
  Pre-emerge Herbicidal Activity RICE: 50
[19]; rate 250 g ai/ha
  Pre-emerge Herbicidal Activity RICE: 90
[20]; rate 63 g ai/ha
  Pre-emerge Herbicidal Activity CORN: 45
[20]; rate 250 g ai/ha
  Pre-emerge Herbicidal Activity CORN: 80

Source: patent publication US6355799B1, “Substituted benzene compounds, process for their preparation, and herbicidal and defoliant compositions containing them” (ISK Americas Incorporated, priority 1997, dated 2002)
